{"source": "ChEMBL document CHEMBL1201862", "about": "“PubChem BioAssay data set” (2004)", "key": {"[1]": {"biological_target": "T1, High affinity choline transporter 1 (Homo sapiens, UniProt Q9GZV3)", "T1 sequence (Q9GZV3 whole entry)": "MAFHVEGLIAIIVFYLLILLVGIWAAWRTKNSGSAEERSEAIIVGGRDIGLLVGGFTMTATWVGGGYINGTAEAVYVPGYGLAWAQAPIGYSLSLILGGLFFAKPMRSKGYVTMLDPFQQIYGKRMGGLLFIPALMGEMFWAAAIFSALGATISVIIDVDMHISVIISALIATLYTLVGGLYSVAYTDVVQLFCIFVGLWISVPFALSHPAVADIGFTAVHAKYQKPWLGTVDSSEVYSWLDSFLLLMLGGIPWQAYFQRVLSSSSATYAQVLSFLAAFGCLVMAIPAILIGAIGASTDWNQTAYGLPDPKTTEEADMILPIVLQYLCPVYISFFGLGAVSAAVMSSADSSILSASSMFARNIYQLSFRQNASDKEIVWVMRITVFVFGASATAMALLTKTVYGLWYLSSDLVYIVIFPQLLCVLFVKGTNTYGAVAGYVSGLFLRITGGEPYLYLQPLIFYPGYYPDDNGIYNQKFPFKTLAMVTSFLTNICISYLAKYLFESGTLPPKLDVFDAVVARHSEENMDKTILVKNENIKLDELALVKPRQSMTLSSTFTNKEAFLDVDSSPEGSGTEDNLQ", "test": "CHT inhibitors, dose response, cell-based, 5-point CRC, membrane potential dye (AID 504840)", "assay_type": "functional"}, "[2]": {"biological_target": "T1, High affinity choline transporter 1", "test": "CHT inhibitors, dose response, cell-based, 10-point CRC, membrane potential dye (AID 588401);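 note: membrane potential dye fluorescence of choline-evoked depolarization via CHT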", "assay_type": "functional"}, "[3]": {"test": "miR-122 activators in hepatoma reporter cells, dose response, cell-based, Huh7 psiCHECK-miR122, Renilla luciferase, cherry-picked (AID 651956);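 note: huh7 hepatoma cells stably carrying a psiCHECK-2 miR-122 sensor plasmid; renilla luciferase signal reporting endogenous miR-122 activity after 48 h compound exposure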", "assay_type": "functional"}, "[4]": {"test": "HEK293T cytotoxicity, dose response, cytotoxicity control for miR-122 modulator project, cell-based, inhibitor set, cherry-pick, set 2 (AID 720697)", "assay_type": "functional"}, "[5]": {"test": "HEK293T cytotoxicity, dose response, cytotoxicity control for miR-122 modulator project, cell-based, activator set, cherry-pick (AID 720690);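 note: HEK293T human cells scored for general mammalian cytotoxicity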", "assay_type": "functional"}, "[6]": {"biological_target": "ADP-ribosylation factor GTPase-activating protein 1 (Rattus norvegicus, UniProt Q62848)", "sequence (Q62848 whole entry)": "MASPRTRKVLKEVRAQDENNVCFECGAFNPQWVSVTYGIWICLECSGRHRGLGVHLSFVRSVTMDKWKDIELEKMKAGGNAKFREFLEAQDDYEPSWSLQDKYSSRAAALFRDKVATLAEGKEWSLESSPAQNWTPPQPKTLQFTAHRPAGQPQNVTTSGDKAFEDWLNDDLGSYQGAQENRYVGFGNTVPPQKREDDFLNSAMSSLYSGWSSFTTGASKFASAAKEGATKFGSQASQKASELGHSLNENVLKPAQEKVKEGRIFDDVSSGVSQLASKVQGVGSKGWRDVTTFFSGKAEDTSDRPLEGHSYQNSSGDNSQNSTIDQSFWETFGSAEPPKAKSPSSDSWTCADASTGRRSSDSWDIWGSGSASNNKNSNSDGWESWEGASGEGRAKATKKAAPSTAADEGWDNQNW", "test": "Fluorescence polarization-based biochemical high throughput dose response screening assay to identify inhibitors of ADP-ribosylation factor GTPase activating protein 1 (ARFGAP1).", "assay_type": "functional"}, "[7]": {"biological_target": "Arf-GAP with SH3 domain, ANK repeat and PH domain-containing protein 1 (Homo sapiens, UniProt Q9ULH1)", "sequence (Q9ULH1 whole entry, the tested form may be a part)": "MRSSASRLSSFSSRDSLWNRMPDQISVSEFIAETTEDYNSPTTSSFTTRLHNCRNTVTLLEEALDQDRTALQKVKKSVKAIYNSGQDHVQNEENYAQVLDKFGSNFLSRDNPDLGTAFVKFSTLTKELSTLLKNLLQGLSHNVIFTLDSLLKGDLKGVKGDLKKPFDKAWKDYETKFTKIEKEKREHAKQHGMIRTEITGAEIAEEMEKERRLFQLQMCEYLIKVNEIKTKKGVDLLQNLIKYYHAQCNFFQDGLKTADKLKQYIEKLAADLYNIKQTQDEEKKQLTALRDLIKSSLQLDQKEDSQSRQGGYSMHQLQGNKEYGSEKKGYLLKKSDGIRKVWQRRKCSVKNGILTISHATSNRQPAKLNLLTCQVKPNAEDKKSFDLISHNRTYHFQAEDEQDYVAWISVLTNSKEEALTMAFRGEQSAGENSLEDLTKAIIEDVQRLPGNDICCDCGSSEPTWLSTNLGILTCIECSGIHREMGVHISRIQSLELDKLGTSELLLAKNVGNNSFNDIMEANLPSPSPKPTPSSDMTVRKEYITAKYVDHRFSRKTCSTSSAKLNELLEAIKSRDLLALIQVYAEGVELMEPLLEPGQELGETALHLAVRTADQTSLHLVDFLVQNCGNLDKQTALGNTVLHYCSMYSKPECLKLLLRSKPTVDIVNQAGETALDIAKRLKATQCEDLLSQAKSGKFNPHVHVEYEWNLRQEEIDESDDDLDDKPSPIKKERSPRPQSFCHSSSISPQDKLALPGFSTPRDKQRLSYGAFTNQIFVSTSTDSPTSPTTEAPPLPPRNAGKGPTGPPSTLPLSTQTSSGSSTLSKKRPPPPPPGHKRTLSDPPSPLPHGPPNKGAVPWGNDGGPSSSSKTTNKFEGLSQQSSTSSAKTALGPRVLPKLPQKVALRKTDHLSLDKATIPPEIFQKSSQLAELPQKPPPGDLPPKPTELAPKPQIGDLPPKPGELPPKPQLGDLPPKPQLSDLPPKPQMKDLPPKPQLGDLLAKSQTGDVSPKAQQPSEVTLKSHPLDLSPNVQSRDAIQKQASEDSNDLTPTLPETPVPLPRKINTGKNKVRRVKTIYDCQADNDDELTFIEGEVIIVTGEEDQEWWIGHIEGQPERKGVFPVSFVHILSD", "assay_type": "functional"}, "[8]": {"test": "microbe, parasite or virus in culture", "assay_type": "functional", "conditions": "Mycobacterium tuberculosis"}, "[9]": {"biological_target": "Neurotensin receptor type 1 (Homo sapiens, UniProt P30989)", "sequence (P30989 whole entry)": "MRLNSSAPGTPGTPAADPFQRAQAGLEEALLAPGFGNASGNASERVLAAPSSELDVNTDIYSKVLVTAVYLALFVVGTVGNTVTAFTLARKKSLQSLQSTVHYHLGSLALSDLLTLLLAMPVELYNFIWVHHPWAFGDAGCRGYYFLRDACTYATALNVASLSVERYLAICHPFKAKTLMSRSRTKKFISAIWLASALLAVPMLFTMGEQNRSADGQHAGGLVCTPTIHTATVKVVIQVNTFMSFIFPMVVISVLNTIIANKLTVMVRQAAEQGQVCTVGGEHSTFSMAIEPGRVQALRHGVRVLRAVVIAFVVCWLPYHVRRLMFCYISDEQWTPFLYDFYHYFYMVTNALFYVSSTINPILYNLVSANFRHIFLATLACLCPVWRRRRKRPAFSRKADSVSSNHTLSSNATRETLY", "assay_type": "functional"}, "[10]": {"biological_target": "Heat shock protein HSP 90-alpha (Homo sapiens, UniProt P07900)", "assay_type": "functional, organism-based"}, "Vero": {"test_system": "Vero", "test": "cells", "assay_type": "functional", "conditions": "Chlorocebus sabaeus"}, "Melanocortin receptor 4": {"biological_target": "Melanocortin receptor 4 (Homo sapiens, UniProt P32245)", "sequence (P32245 whole entry)": "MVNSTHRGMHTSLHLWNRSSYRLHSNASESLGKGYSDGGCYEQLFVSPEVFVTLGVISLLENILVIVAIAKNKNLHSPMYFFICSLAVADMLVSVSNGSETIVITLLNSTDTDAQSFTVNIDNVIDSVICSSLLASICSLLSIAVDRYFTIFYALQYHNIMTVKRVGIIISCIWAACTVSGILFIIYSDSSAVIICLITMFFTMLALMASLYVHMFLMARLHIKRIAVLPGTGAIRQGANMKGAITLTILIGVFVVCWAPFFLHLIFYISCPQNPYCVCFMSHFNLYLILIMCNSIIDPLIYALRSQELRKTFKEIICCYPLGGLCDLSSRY", "test": "MC4R antagonist potency on cAMP, dose response, cell-based, TR-FRET, biased antagonists (AID 602298);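 note: antagonist potency against agonist-stimulated cAMP production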", "assay_type": "functional"}, "[11]": {"test": "Shn3 3'UTR reporter inhibitors, dose response, cell-based, Clone20 osteoblasts, firefly luciferase, cherry-picked (AID 624132)", "assay_type": "functional"}, "[12]": {"test": "HepG2 cell cytotoxicity, dose response, cytotoxicity control for Shn3 inhibitor project, CellTiter-Glo, cherry-picked (AID 624134)", "assay_type": "functional, cell-based"}, "[13]": {"test": "control 3'UTR Renilla luciferase suppression, dose response, counter-screen for Shn3 inhibitor project, cell-based, Clone20-Shn3RL, cherry-picked (AID 624133)", "assay_type": "functional"}, "[14]": {"test": "nonselective inhibitors of cellular cAMP signaling, dose response, counter-screen for MC4R biased antagonist project, cell-based, TR-FRET cAMP detection (AID 602305);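 note: U2OS cells stimulated with forskolin near its EC80 as the cAMP inducer; potency is for inhibition of forskolin-stimulated cAMP signaling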", "assay_type": "functional"}, "[15]": {"test": "Fluorescence-based cell-based high throughput dose response assay for inhibitors of the interaction of nucleotide-binding oligomerization domain containing 2 (NOD2) and the receptor-interacting serine-threonine kinase 2 (RIPK2).", "assay_type": "functional", "conditions": "Homo sapiens"}, "H9c2": {"test_system": "H9c2", "test": "cells", "assay_type": "functional, cell-based", "conditions": "Rattus norvegicus, H9c2, Myocardium"}, "[16]": {"biological_target": "T2, Small ubiquitin-related modifier 2 (Homo sapiens, UniProt P61956)", "T2 sequence (P61956 whole entry)": "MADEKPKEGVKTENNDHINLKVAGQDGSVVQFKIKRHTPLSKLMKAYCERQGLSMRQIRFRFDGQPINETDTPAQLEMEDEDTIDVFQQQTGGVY", "test": "SUMO2–SIM peptide binding inhibitors, dose response, selectivity assay for SUMO1 interaction inhibitor project, biochemical, fluorescence polarization, uHTS hits (AID 624385)", "assay_type": "functional", "conditions": "read-out: IC50_Mean"}, "[17]": {"biological_target": "T3, Small ubiquitin-related modifier 1 (Homo sapiens, UniProt P63165)", "T3 sequence (P63165 whole entry)": "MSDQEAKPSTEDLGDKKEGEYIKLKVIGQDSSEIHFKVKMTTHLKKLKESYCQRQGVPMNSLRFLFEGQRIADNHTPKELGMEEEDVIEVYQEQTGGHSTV", "test": "inhibitors of SUMO1 peptide binding, dose response, biochemical, fluorescence polarization, uHTS hits (AID 624382)", "assay_type": "functional", "conditions": "read-out: IC50_Mean"}, "[18]": {"biological_target": "T2, Small ubiquitin-related modifier 2", "test": "inhibitors of SUMO2 protein-protein interaction, dose response, selectivity assay for SUMO1 interaction inhibitor project, biochemical, FRET, human SUMO2, uHTS hits (AID 624384)", "assay_type": "functional", "conditions": "read-out: IC50_Mean"}, "[19]": {"biological_target": "T3, Small ubiquitin-related modifier 1", "test": "inhibitors of SUMO1 partner interactions, dose response, biochemical, FRET (AID 624383)", "assay_type": "functional", "conditions": "read-out: IC50_Mean"}, "[20]": {"biological_target": "T4, Low molecular weight phosphotyrosine protein phosphatase (Homo sapiens, UniProt P24666)", "T4 sequence (P24666 whole entry)": "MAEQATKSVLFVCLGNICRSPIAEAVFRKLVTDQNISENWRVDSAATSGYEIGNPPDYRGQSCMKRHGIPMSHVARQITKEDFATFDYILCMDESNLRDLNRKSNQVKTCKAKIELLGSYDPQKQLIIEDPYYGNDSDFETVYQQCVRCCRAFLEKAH", "assay_type": "functional", "conditions": "read-out: IC50_Mean"}, "[21]": {"biological_target": "T4, Low molecular weight phosphotyrosine protein phosphatase", "assay_type": "functional", "conditions": "read-out: IC50_Mean", "remark": "listed apart in the source"}, "Protein Wnt-3a": {"biological_target": "Protein Wnt-3a (Mus musculus, UniProt P27467)", "sequence (P27467 whole entry)": "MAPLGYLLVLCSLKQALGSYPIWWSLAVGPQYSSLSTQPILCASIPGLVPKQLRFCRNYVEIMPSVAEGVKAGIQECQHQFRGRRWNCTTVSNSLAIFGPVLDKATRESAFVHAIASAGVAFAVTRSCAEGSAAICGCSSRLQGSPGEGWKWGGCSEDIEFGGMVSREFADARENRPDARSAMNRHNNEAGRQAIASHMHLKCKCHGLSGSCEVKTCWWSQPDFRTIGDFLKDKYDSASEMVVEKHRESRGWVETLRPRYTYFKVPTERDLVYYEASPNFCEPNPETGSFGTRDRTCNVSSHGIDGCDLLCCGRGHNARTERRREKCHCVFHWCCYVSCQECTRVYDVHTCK", "test": "Wnt3a-driven reporter signaling inhibition, dose response, selectivity assay for Gli-SUFU antagonist project, Wnt-LIGHT cells, luminescence (AID 651570);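 note: Wnt-LIGHT reporter cells stimulated with conditioned medium from Wnt3a-producing cells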", "assay_type": "functional", "conditions": "read-out: IC50_Mean"}}, "note": "Activity calls are given as the source filed them.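 Throughout, for EC50: Image-based confirmatory dose-response assay measuring agonist activity at NTR1; NTR1-expressing U2OS osteosarcoma cells imaged for beta-arrestin GFP spot formation; agonist potency where compounds increase beta-arrestin recruitment.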", "data": [{"smiles": "Cc1ccc(NC(=O)CN2C(=O)NC3(CCc4ccccc43)C2=O)cc1Cl", "note": "(configuration not stated)", "values": [{"measurement": "IC50", "setting": "[1]", "result": "9.3 µM (active)"}, {"measurement": "IC50", "setting": "[2]", "result": "11.2 µM (active)"}]}, {"smiles": "COc1ccc(OC)c(-c2cc(C3CCN(c4cc(Cl)nc(N)n4)CC3)[nH]n2)c1", "values": [{"measurement": "AC50", "setting": "[3]", "result": "42.9 µM (active)"}, {"measurement": "AC50", "setting": "[4]", "result": "18.1 µM (active)"}, {"measurement": "AC50", "setting": "[5]", "result": "16.7 µM (active)"}]}, {"smiles": "CC(=O)c1cccc(NC(=O)c2cccc3c(-c4cccnc4)coc23)c1", "values": [{"measurement": "IC50", "setting": "[6]", "result": "129 µM (inactive)"}, {"measurement": "IC50", "setting": "[7]", "result": "79.4 µM (inactive)"}]}, {"smiles": "O=C(c1ccc(Br)cc1)C(CN1CCOCC1)c1ccccc1", "note": "(configuration not stated)", "values": [{"measurement": "CC50", "setting": "[8]", "result": "> 40 µM (active)"}, {"measurement": "EC50", "setting": "[9]", "result": "33 µM (inactive)"}, {"measurement": "AC50", "setting": "[10]", "result": "2.85 µM (active)"}, {"measurement": "CC50", "setting": "Vero", "result": "> 25 µM (active)"}, {"measurement": "IC50", "setting": "Melanocortin receptor 4", "result": "> 64.6 µM (inactive)"}, {"measurement": "AC50", "setting": "[11]", "result": "9.4 µM (active)"}, {"measurement": "AC50", "setting": "[12]", "result": "21.6 µM (active)"}, {"measurement": "AC50", "setting": "[13]", "result": "10.6 µM (active)"}, {"measurement": "IC50", "setting": "[14]", "result": "> 64.6 µM (inactive)"}, {"measurement": "IC50", "setting": "[15]", "result": "7.78 µM (active)"}]}, {"smiles": "COc1cc(NS(=O)(=O)c2ccc(NC(=O)c3ccc(Cl)cc3Cl)cc2)ncn1", "values": [{"measurement": "IC50", "setting": "[1]", "result": "4.47 µM (active)"}, {"measurement": "IC50", "setting": "[2]", "result": "9.46 µM (active)"}]}, {"smiles": "Nc1cc2nc(O)c3ccccc3c2cc1[N+](=O)[O-]", "values": [{"measurement": "IC50", "setting": "H9c2", "result": "> 79 µM (inactive)"}, {"measurement": "IC50", "setting": "[16]", "result": "45.7 µM (inactive)"}, {"measurement": "IC50", "setting": "[17]", "result": "1.02 µM (active)"}, {"measurement": "IC50", "setting": "[18]", "result": "> 66 µM (inactive)"}, {"measurement": "IC50", "setting": "[19]", "result": "51.8 µM (inactive)"}]}, {"smiles": "COCCNc1nc(NCc2ccc(C)cc2C)c2sccc2n1", "values": [{"measurement": "IC50", "setting": "[20]", "result": "15.6 µM (active)"}, {"measurement": "IC50", "setting": "[21]", "result": "13.8 µM (active)"}]}, {"smiles": "C/C(=N\\NC(=O)C(=O)Nc1ccc(C)c(Cl)c1)c1ccncc1", "values": [{"measurement": "IC50", "setting": "Protein Wnt-3a", "result": "0.909 µM (active)"}]}]}
